Usually Ki stands for a measure of affinity in units of concentration, obtained from inhibition or displacement. As usually defined, the pKi is the Ki on a negative log10 scale, so that one unit is a factor of ten. The IC50 is the midpoint of a concentration-inhibition curve. Low values mean greater potency in that assay, high ones weaker potency in that assay. The inhibition is the drop in the measured response relative to a control, in per cent.

Some results are limits rather than exact numbers.

Data set [1] in a line: GPCRScan assay: inhibition of GABA/PBR. Set-up: species or system Rattus norvegicus; radioligand conc. used [nm] 0.3 – 2.0, parental cells brain tissue.
Data set [2] deals with Transient receptor potential cation channel subfamily A member 1 (Homo sapiens, UniProt O75762). The data set is described as follows: Fluorometric imaging plate reader (FLIPR)-based Ca2+ assay. Also noted: compound concentration 0.03-0.3 uM.
For data set [3], the target named is Casein kinase I isoform gamma-3 (Homo sapiens) (UniProt Q9Y6M4). Particulars: Compound concentration 1000.0 nM; call rule not given here.
For data set [4], the target named is Dual specificity mitogen-activated protein kinase kinase 5 (Homo sapiens) (UniProt Q13163). Conditions: Compound concentration 1000.0 nM.
For data set [5], the target named is Serine/threonine-protein kinase D3 (Homo sapiens) (UniProt O94806). Conditions: Compound concentration 1000.0 nM.
Data set [6] deals with Rho-associated protein kinase 2 (Homo sapiens) (UniProt O75116). Particulars: Compound concentration 1000.0 nM.
For data set [7], the target named is Adenosine receptor A3 (Homo sapiens) (UniProt P0DMS8). Nature of the data set: A3 CEREP ligand profiling. Conditions: Compound concentration 10.0 uM.
In data set [8] the target is Type-2 angiotensin II receptor (Homo sapiens) (UniProt P50052). Nature of the data set: AT2 (h) CEREP ligand profiling. Particulars: Compound concentration 10.0 uM.
Data set [9] concerns the target Translocator protein (Rattus norvegicus) (UniProt P16257). Nature of the data set: BZD-peripheral CEREP ligand profiling. Conditions: Compound concentration 10.0 uM.
Data set [10] in a line: GABA CEREP ligand profiling. Conditions: Compound concentration 10.0 uM.
Data set [11] deals with Histamine H2 receptor (Homo sapiens) (UniProt P25021). Nature of the data set: H2 (h) CEREP ligand profiling. Conditions: Compound concentration 10.0 uM.
The target in data set [12] is T1, Muscarinic acetylcholine receptor M4 (Homo sapiens) (UniProt P08173).
T1 sequence (whole entry): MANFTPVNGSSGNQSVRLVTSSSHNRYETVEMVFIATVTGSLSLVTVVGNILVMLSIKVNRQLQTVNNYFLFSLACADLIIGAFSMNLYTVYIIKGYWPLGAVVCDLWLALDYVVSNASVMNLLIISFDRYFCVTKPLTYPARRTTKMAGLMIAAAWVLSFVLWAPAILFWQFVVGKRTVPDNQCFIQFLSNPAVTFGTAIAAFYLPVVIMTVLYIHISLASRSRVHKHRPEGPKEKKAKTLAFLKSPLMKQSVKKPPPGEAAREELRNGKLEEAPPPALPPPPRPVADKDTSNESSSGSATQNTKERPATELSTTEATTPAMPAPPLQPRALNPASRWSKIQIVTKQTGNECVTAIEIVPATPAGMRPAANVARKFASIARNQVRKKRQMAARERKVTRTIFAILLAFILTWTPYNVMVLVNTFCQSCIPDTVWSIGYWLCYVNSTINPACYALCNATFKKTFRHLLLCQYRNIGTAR
Nature of the data set: M4 (h) CEREP ligand profiling. Conditions: Compound concentration 10.0 uM.

Data set [13] addresses Neuropeptide Y receptor type 2 (Homo sapiens) (UniProt P49146). Nature of the data set: Y2 (h) CEREP ligand profiling. Conditions: Compound concentration 10.0 uM.
Data set [14] deals with Delta-type opioid receptor (Homo sapiens) (UniProt P41143). Nature of the data set: delta 2 (h) CEREP ligand profiling. Particulars: Compound concentration 10.0 uM.
For data set [15], the target named is 5-hydroxytryptamine receptor 7 (Homo sapiens) (UniProt P34969). The data set is described as follows: 5-HT7 (h) CEREP ligand profiling. Particulars: Compound concentration 10.0 uM.
Data set [16] is described as follows: K+ channel CEREP ligand profiling. Conditions: Compound concentration 10.0 uM.
Data set [17] has as its target Sodium-dependent noradrenaline transporter (Homo sapiens) (UniProt P23975). The data set is described as follows: NE transporter CEREP ligand profiling. Conditions: Compound concentration 10.0 uM.
The target of data set [18] is Adenosine receptor A2a (Homo sapiens) (UniProt P29274). Nature of the data set: A2A (h) CEREP ligand profiling. Particulars: Compound concentration 10.0 uM.
Data set [19] concerns the target Beta-1 adrenergic receptor (Homo sapiens) (UniProt P08588). The data set is described as follows: beta1 (h) CEREP ligand profiling. Particulars: Compound concentration 10.0 uM.
In data set [20] the target is Bombesin receptor (Homo sapiens) (UniProt P28336+P32247+P30550). The data set is described as follows: BB (non-select) CEREP ligand profiling. It is filed as protein assay. Conditions: Compound concentration 10.0 uM.
Data set [21] deals with D(3) dopamine receptor (Homo sapiens) (UniProt P35462). Nature of the data set: D3 (h) CEREP ligand profiling. Particulars: Compound concentration 10.0 uM.
Data set [22] concerns the target Endothelin receptor type B (Homo sapiens) (UniProt P24530). Nature of the data set: ETB (h) CEREP ligand profiling. Conditions: Compound concentration 10.0 uM.
In data set [23] the target is Platelet-derived growth factor receptor (Homo sapiens) (UniProt P09619+P16234). The data set is described as follows: PDGF CEREP ligand profiling. It is filed as protein-complex assay. Conditions: Compound concentration 10.0 uM.
Data set [24] has as its target Melanocortin receptor 4 (Homo sapiens) (UniProt P32245). The data set is described as follows: MC4 (h) CEREP ligand profiling. Particulars: Compound concentration 10.0 uM.
In data set [25] the target is T2, Muscarinic acetylcholine receptor M1 (Homo sapiens) (UniProt P11229).
T2 sequence (whole entry): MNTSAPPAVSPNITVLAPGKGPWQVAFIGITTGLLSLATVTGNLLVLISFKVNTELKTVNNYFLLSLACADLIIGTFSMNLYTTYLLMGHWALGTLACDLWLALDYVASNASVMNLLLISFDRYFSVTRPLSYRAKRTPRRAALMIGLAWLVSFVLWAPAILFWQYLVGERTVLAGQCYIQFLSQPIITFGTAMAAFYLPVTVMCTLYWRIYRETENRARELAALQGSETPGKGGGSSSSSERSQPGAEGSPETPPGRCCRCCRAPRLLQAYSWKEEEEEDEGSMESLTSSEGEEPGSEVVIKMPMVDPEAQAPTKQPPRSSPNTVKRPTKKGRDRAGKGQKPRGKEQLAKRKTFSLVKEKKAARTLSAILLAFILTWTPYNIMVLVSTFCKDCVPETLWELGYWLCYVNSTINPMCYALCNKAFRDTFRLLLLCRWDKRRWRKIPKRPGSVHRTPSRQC
Nature of the data set: M1 (h) CEREP ligand profiling. Conditions: Compound concentration 10.0 uM.

Data set [26] concerns the target Muscarinic acetylcholine receptor M3 (Homo sapiens) (UniProt P20309). The data set is described as follows: M3 (h) CEREP ligand profiling. Particulars: Compound concentration 10.0 uM.
The target in data set [27] is Neuropeptide Y receptor type 1 (Homo sapiens) (UniProt P25929). The data set is described as follows: Y1 (h) CEREP ligand profiling. Conditions: Compound concentration 10.0 uM.
Data set [28] has as its target Neurotensin receptor type 1 (Homo sapiens) (UniProt P30989). Nature of the data set: NT1 (h) CEREP ligand profiling. Particulars: Compound concentration 10.0 uM.
In data set [29] the target is Nociceptin receptor (Homo sapiens) (UniProt P41146). Nature of the data set: ORL1 (h) (NOP) CEREP ligand profiling. Conditions: Compound concentration 10.0 uM.
For data set [30], the target named is P2X receptor (Rattus norvegicus) (UniProt P51579+P49653+P51578+Q64663+P47824+P51577+P49654). Nature of the data set: P2X CEREP ligand profiling. Particulars: Compound concentration 10.0 uM. It is filed as protein assay.
Data set [31] deals with 5-hydroxytryptamine receptor 6 (Homo sapiens) (UniProt P50406). The data set is described as follows: 5-HT6 (h) CEREP ligand profiling. Conditions: Compound concentration 10.0 uM.
Data set [32] addresses Ca2+ channel (voltage-gated L-type calcium channel family) (Homo sapiens, UniProt O60840+Q01668+Q13698+Q13936). The data set is described as follows: Ca2+ channel CEREP ligand profiling. Conditions: probe penylalkylamine (ligand); compound concentration 10 uM. It counts as protein assay.
In data set [33] the target is Sodium-dependent dopamine transporter (Homo sapiens) (UniProt Q01959). Nature of the data set: DA transporter(h) CEREP ligand profiling. Conditions: Compound concentration 10.0 uM.
Data set [34] has as its target Histamine H2 receptor (Homo sapiens) (UniProt P25021). Particulars: Compound concentration 10.0 uM.

Chain of Histamine H2 receptor (Homo sapiens) (P25021 whole entry): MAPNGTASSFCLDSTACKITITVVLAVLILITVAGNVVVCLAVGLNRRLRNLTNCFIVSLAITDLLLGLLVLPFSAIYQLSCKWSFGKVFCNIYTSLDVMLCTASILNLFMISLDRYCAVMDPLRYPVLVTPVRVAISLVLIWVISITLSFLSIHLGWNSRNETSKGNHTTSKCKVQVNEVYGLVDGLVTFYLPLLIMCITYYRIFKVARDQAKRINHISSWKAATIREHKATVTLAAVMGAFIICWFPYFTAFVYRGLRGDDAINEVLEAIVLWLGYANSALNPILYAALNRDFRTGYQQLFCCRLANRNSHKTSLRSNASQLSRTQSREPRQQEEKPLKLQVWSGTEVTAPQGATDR
Chain of 5-hydroxytryptamine receptor 7 (Homo sapiens) (P34969 whole entry): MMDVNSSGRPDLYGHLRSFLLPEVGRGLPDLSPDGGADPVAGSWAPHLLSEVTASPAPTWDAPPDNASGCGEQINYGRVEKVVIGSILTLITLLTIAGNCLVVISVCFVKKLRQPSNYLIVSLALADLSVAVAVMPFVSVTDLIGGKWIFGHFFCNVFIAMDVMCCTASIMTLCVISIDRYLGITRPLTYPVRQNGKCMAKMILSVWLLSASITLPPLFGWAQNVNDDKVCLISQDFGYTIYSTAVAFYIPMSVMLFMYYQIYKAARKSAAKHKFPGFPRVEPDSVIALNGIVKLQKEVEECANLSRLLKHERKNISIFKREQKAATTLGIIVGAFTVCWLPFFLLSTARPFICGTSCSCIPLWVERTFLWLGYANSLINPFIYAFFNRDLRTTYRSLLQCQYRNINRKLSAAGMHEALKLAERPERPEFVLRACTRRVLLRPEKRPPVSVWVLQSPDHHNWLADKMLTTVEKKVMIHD
Chain of Adenosine receptor A2a (Homo sapiens) (P29274 whole entry): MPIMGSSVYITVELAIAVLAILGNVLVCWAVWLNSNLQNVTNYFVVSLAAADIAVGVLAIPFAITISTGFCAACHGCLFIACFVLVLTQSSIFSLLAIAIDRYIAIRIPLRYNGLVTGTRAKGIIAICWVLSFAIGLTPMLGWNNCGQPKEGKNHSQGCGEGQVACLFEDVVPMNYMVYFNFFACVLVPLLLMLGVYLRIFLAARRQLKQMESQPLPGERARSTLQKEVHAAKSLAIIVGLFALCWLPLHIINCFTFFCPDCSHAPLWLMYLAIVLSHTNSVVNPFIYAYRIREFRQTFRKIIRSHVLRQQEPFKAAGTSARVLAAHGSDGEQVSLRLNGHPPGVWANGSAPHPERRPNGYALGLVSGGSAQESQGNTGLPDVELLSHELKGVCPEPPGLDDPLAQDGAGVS
Chain of Bombesin receptor (Homo sapiens) (P28336 whole entry, looked up): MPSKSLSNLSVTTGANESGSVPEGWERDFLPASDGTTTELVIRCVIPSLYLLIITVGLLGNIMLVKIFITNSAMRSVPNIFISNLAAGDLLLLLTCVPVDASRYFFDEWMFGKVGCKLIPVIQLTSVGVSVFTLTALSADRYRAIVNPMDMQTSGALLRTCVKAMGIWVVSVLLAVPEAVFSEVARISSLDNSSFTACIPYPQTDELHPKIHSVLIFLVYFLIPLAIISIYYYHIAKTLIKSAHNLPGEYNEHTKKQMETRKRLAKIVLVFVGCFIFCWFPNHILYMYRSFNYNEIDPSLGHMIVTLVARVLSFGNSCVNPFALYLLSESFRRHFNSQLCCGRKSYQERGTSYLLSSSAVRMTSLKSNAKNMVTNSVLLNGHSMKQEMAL
Chain of Bombesin receptor (Homo sapiens) (P30550 whole entry, looked up): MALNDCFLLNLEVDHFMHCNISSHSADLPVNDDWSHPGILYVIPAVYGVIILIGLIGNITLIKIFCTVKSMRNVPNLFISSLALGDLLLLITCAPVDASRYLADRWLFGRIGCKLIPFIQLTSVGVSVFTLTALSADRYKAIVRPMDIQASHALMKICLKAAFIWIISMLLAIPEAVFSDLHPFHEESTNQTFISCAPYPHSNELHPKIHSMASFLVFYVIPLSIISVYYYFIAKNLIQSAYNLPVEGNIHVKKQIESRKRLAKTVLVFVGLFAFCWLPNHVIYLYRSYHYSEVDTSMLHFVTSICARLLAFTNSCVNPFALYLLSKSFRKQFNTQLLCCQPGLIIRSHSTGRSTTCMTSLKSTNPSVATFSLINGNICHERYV
Chain of Bombesin receptor (Homo sapiens) (P32247 whole entry, looked up): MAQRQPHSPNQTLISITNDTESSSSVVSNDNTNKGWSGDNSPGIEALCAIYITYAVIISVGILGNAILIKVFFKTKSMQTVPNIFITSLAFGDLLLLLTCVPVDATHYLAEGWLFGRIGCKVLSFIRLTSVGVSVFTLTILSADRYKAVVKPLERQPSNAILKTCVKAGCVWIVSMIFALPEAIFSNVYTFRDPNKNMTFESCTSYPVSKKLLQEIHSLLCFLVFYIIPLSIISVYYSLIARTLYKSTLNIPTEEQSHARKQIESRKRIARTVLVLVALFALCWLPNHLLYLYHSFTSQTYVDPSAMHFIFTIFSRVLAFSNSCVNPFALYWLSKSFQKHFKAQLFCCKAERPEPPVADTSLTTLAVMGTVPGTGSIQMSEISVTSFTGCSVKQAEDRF
Chain of Melanocortin receptor 4 (Homo sapiens) (P32245 whole entry): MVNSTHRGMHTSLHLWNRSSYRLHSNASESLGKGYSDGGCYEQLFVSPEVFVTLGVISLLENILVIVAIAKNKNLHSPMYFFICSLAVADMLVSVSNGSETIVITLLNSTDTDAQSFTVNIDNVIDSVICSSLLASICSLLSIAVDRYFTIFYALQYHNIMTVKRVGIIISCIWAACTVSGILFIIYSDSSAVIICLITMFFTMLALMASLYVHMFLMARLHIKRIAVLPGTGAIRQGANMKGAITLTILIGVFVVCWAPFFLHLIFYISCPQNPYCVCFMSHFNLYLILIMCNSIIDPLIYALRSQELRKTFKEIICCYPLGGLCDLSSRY
Chain of Muscarinic acetylcholine receptor M3 (Homo sapiens) (P20309 whole entry, looked up): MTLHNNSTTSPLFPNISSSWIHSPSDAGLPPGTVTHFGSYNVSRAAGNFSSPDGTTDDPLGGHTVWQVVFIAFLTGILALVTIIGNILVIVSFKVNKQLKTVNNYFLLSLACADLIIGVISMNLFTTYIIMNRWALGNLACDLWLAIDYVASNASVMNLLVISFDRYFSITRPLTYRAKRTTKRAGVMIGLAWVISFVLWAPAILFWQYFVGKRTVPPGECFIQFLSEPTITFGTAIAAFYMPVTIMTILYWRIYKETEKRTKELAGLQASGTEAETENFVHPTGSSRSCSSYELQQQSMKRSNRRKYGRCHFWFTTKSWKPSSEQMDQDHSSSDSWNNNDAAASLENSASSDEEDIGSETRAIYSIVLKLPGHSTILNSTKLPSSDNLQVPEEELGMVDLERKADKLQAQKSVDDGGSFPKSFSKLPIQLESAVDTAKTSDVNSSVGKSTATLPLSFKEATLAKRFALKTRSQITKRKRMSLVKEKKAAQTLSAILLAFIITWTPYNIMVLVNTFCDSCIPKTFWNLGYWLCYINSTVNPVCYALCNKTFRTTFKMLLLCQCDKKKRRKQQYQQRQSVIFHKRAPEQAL
Chain of Dual specificity mitogen-activated protein kinase kinase 5 (Homo sapiens) (Q13163 whole entry): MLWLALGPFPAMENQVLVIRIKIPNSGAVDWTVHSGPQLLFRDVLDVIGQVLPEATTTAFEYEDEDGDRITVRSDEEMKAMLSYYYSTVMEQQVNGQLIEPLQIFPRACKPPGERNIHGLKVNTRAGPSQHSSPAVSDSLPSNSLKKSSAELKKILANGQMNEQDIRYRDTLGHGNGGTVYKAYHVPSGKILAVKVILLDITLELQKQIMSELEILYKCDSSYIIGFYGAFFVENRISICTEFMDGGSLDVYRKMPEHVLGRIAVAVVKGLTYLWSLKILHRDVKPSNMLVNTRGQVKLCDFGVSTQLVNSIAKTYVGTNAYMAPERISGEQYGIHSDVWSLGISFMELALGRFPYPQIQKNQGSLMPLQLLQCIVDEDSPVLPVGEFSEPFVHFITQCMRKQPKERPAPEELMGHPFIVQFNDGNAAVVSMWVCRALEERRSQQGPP
Chain of D(3) dopamine receptor (Homo sapiens) (P35462 whole entry): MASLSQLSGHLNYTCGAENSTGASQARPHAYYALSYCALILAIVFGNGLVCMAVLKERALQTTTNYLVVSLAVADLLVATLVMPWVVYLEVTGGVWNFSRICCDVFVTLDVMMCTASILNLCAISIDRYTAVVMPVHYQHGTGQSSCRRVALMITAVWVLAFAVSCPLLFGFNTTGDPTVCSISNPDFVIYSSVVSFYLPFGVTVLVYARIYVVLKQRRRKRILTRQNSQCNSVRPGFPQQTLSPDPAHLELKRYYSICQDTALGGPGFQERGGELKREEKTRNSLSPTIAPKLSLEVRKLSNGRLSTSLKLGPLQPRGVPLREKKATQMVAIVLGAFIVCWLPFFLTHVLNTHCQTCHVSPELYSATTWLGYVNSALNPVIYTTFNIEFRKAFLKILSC
Chain of Neurotensin receptor type 1 (Homo sapiens) (P30989 whole entry): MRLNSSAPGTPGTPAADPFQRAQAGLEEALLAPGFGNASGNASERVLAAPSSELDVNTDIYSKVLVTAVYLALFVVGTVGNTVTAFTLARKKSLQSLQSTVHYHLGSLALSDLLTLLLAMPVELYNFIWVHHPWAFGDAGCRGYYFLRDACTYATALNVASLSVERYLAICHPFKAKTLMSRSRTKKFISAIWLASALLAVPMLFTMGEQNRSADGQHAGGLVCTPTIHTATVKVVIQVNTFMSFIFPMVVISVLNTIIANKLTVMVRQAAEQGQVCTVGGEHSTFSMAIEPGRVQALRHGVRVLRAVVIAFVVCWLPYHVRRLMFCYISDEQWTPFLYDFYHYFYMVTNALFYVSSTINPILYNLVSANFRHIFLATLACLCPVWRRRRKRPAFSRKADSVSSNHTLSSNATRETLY
Chain of Adenosine receptor A3 (Homo sapiens) (P0DMS8 whole entry): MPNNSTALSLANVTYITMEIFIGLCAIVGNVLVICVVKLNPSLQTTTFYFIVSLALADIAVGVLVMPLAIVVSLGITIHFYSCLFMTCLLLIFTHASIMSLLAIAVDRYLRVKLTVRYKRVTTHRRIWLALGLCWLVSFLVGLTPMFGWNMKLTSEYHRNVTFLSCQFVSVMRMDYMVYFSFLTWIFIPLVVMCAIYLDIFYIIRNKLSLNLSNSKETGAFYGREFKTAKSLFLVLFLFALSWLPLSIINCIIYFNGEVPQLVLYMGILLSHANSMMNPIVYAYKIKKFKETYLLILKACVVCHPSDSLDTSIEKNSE

As for `CCC(=N\O)/C(C)=C/c1ccc(F)c(C)c1` [A-226], the inhibition constant Ki in data set [1] was 3.69 µM. Further, the negative-log Ki (pKi) in data set [1] was 5.44. Further, the IC50 in data set [2] is recorded as > 100 µM (not active). Further, the residual activity in data set [3] is 100%; in data set [4], 86%; in data set [5], 100%; in [6] it was 100%.
For `CCC(=N\O)/C(C)=C/c1ccc(F)cc1` [A-079], the inhibition in data set [7] is 27%; in [8] it was -9%; in [9], 6%; in data set [10], -3%; in data set [11] it was 3%; in [12], 5%. Moreover, the inhibition was 13% in data set [13]; 11% in [14]; 17% in data set [15]; -8% in [16]; 32% in [17]; 8% in [18]. Besides, the inhibition was -2% in [19]; -3% in [20]; 14% in [21]; 5% in data set [22]; -6% in data set [23]; 2% in [24]. The inhibition in data set [25] was 8%; in [26], 6%; in data set [27], 0%; in [28], -5%; in data set [29], -5%; in data set [30] it was -2%. Besides, the inhibition in data set [31] was 0%; in data set [33], 43%; in [34], 0.46%. Moreover, the inhibition at 10 µM in [32] is recorded as 3% (not active).

The values above are taken from ChEMBL document CHEMBL4507256 (2021).
